{"source": "paper PMC8145938", "about": "“Triphenilphosphonium Analogs of Chloramphenicol as Dual-Acting Antimicrobial and Antiproliferating Agents” (Antibiotics, 2021)", "key": {"E. coli 70S ribosomes": {"system": "E. coli 70S ribosomes", "parameters": "method as in PMID 33916420", "conditions": "displacement of BODIPY-ERY from 70S ribosomes; read-out: apparent dissociation constant (KDapp); cited from earlier work"}, "[1]": {"system": "MDA-MB-231 and BT-549 TNBC-sensitive and chemoresistant cells", "assay": "cancer cell proliferation / viability assay (MTT)", "format": "cell-based", "conditions": "3 days treatment", "excerpt": "We recently provided in vivo [67] and in vitro [68] evidence that certain bactericidal antibiotics suppress tumor growth by inducing mitochondrial dysfunction. […] These cells differ from the corresponding parental cells and display a different response to the same microenvironmental stimuli, allowing them to reduce their proliferating rate and survive chemotherapeutic treatment. Here, we tested the abovementioned CAM-TPP derivatives on chemoresistant triple negative breast cancer (TNBC) cell models, as well as on corresponding CSC-like spheroid cells. We created several relevant models based on TNBC cell lines, particularly MDA-MB-231 and BT-549, to determine their resistance to cyclophosphamide. To create CSC-like cells, parental cells were resuspended in nonadherent conditions to form tumorspheres.\nThe MDA-MB-231 (RRID: CVCL_0062) and BT-549 (RRID: CVCL_1092) cell lines were purchased from ATCC and cultured in DMEM/F12 (Gibco, Life Technologies, 31330-038) supplemented with 10% FBS, 1% Pen-Strep, 1% Sodium Pyruvate, and 1% L-glutamine. Chemoresistant cell lines were established with continuous treatment for 6 months with the anticancer therapeutic agent, cyclophosphamide (Rcyclo), as previously described. These cell lines were authenticated using short tandem repeat (STR) profiling within the last three years. […] The relative numbers of tumourspheres per well were counted manually. […]\nThe survival assay was performed essentially as described earlier. […] The absorbance was measured at 570 nm in Bio Spec 1601, Shimadzu spectrometer. […] The results were expressed as the means ± SEM. The data were analyzed using the GraphPad Prism 7 PRIZM computer software under the license of the Statistical Department (Vall’ d Hebron Hospital, Barcelona, Spain)."}, "[2]": {"system": "ribosome stalling on trpL mRNA in a cell-free translation system", "assay": "toeprinting (primer extension inhibition) assay on trpL mRNA", "format": "biochemical", "conditions": "trpL mRNA template, 30 μM compound", "excerpt": "To investigate the mechanism of action of CAM-C10-TPP and CAM-C14-TPP in the translation process, a primer extension inhibition assay (toeprinting) was used. This method allows for the unambiguous identification of drug-induced ribosome stalling sites along the mRNA, with single-nucleotide precision. This technique is also used to determine the context-specificity of antibiotic action. For this experiment, trpL mRNAs were chosen as the template, as in the pDualrep2 reporter system. […] Compared to the results obtained previously for CAM-C4-TPP using rst1 and rst2 mRNA templates, more unambiguous results were obtained using a trpL mRNA template. The main drug-induced ribosome stalling sites are different for CHL and CAM-Cn-TPP, and there are also CAM-Cn-TPP-specific stalling positions.\nThe toeprinting assay was carried out using trpL mRNA as a template, as described in [73], and the reactions were preincubated for 5 min with 30 μM of the tested compound."}, "B. subtilis cells": {"system": "B. subtilis cells", "assay": "membrane potential by DiS-C3-(5) fluorescence", "format": "cell-based, Bacillus subtilis", "excerpt": "Thus, we further examined the effect of CAM-Cn-TPP on the bacterial membrane potential of B. subtilis. In particular, the membrane potential of B. subtilis can be estimated from the fluorescence of the potential-sensitive dye, DiS-C3-(5), by measuring the changing fluorescence. The potential-dependent accumulation of the dye inside the bacterial cell causes quenching and leads to a decrease in fluorescence. Under the influence of substances that reduce the membrane potential, the dye is released and the fluorescence increases. […] Therefore, the action of CAM-Cn-TPP may have a double effect on bacterial cells and be based on the depolarization of the bacterial membrane by analogy with the mechanism of action of Cn-TPP [17].\nThe membrane potential of B. subtilis was estimated by measuring the fluorescence of the potential-dependent probe, DiS-C3-(5). B. subtilis from the overnight culture were seeded into a fresh LB medium, followed by growth for […], until reaching the optical density of 0.8 at 600 nm. Then, the bacteria were diluted 20-fold in a buffer containing 100 mM of KCl and 10 mM of Tris, pH 7.4. The fluorescence was measured at 670 nm (excitation at 630 nm) using a Fluorat-02-Panorama fluorimeter."}}}
{"smiles": "O=C(CCCC[P+](c1ccccc1)(c1ccccc1)c1ccccc1)N[C@H](CO)[C@H](O)c1ccc([N+](=O)[O-])cc1", "note": "[CAM-C4-TPP]", "values": [{"measurement": "Kd", "setting": "E. coli 70S ribosomes", "value": "610 ± 70", "unit": "nM"}, {"measurement": "effect on proliferation of TNBC cell lines", "setting": "[1]", "value": "but not CAM-C4-TPP, significantly reduced the proliferation of TNBC cell lines"}, {"measurement": "drug-induced ribosome stalling site", "setting": "[2]", "value": "blocked the ribosome progression at Val6 (Figure 2D, red arrowhead) and slightly blocked it at Ile4"}, {"measurement": "concentration at which the compound takes effect on membrane potential", "setting": "B. subtilis cells", "value": "≥ 10", "unit": "µM"}]}
